Measurements as given in US20240270793A1, “COMPOSITIONS” (UNIVERSITY OF SOUTHAMPTON, priority 2020, published 2024).
Square brackets hold non-standard residues; d marks the D form. Peptide text beside a SMILES is read from it. Phe(4-I) = N[C@@H](Cc1ccc(I)cc1)C(=O)O

Experiments:
HIF-1a = molecular target: T1, HIF-1a (Homo sapiens, UniProt Q16665); test: CETSA in MCF-7 cells; assay type: cell-based; details: observed at 51° C. and 54° C.
T1 construct: endogenous in cells; host or cells: MCF-7
Method: The binding of 4-iodo derivative to HIF-1a was assessed by CETSA in MCF-7 cells. Stabilisation of HIF-1a by this compound can be observed at 51° C. and 54° C.
The binding of 4-iodo derivative to HIF-1a was assessed by CETSA in MCF-7 cells. Stabilisation of HIF-1a by this compound can be observed at 51° C. and 54° C. (FIG. 7).

[1] = tested on: HRE-controlled YFP expression in T-REx-293 cell line; test: YFP reporter assay (YFP under control of three HRE copies) in hypoxia; assay type: cell-based; details: YFP-reporter HEK cell line, various doses
Method: The effect of the cyclic peptides on cellular systems was assessed. A cell-based assay was developed in which the expression of yellow fluorescent protein (YFP) was put under the control of the HRE. A cassette was designed containing the YFP gene preceded by three copies of the HRE sequence. This cassette in turn was stably integrated into the chromosome of T-REX-293 cell line as described previously. […] In these cells, hypoxia results in increased expression of YFP (directly by HIF), so a HIF inhibitor would be expected to reduce the fluorescence of these cells when incubated in hypoxia.
Following in vitro characterisation and optimisation of binding, the effect of the cyclic peptides on cellular systems was assessed. A cell-based assay was developed in which the expression of yellow fluorescent protein (YFP) was put under the control of the HRE. A cassette was designed containing the YFP gene preceded by three copies of the HRE sequence. This cassette in turn was stably integrated into the chromosome of T-REx-293 cell line as described previously.^12
In these cells, hypoxia results in increased expression of YFP (directly by HIF), so a HIF inhibitor would be expected to reduce the fluorescence of these cells when incubated in hypoxia.

cells = test: commercial cell-viability assay; assay type: cell-based; details: at up to twice the tested doses
Method: The 4-iodo derivative was tested in a commercial cell-viability assay, and was not toxic to cells at up to twice the tested doses.
The 4-iodo derivative was tested in a commercial cell-viability assay, and was not toxic to cells at up to twice the tested doses (FIG. 6).

HIF-1α PAS-B (238-349) = molecular target: T2, HIF-1α PAS-B (238-349) (Homo sapiens, UniProt Q16665); test: MST binding to recombinantly expressed HIF-1α PAS-B domain; details: HIF-1α PAS-B, parent CRLIIF
T2 construct: human HIF-1α PAS-B (238-349); His tag; made in house; host or cells: E. coli BL21(DE3)-Rosetta, pET28a
T2 sequence (Q16665 238-349): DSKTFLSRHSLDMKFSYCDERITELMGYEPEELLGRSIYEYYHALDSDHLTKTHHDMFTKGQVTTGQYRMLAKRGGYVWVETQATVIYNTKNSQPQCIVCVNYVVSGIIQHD
Method: (§1) Genes encoding for human HIF-1α PAS-B (238-349) and HIF-2α PAS-B (240-350) were each cloned into pET28a vectors at the BamHI and SacI restriction sites. The recombinant plasmids were next transformed into BL21(DE3)-Rosetta chemically competent cells. Cells were grown in LB media at 37° C. to an OD600 of 0.7, after which expression was induced by addition of 0.5 mM IPTG. Following overnight expression at 16° C., cells were pelleted and resuspended in buffer containing 50 mM Tris, 150 mM NaCl, 5% glycerol, 1 mM TCEP, protease inhibitors (Roche) and 20 mM imidazole, pH 8.0. Cells were lysed by sonication, and the supernatant applied to a 1 mL Histrap FF affinity column. The His-tagged protein of interest was eluted with buffer containing 50 mM Tris, 150 mM NaCl, 5% glycerol, 1 mM TCEP and 250 mM imidazole. The protein was then loaded onto a HiLoad 16/600 superdex 75 pg size exclusion column (GE healthcare) equilibrated with assay buffer containing 50 mM Tris, 150 mM NaCl, 5% glycerol and 1 mM TCEP, pH 8.0. Fractions containing the desired protein were flash-frozen and stored at −80° C. prior to use.
HIF-α proteins were labelled with Monolith NT-647 labelling dye (Nanotemper Technologies GmbH) according to the manufacturer's instructions. MST experiments were performed on a Monolith NT.115 system (Nanotemper Technologies GmbH), in assay buffer containing 50 nM labelled protein, 10% DMSO and 0.05% TWEEN-20. MST measurements were performed using 50% LED and 50% MST power.

HIF-2α PAS-B (240-350) = molecular target: T3, HIF-2α PAS-B (240-350) (Homo sapiens, UniProt Q99814); test: MST binding to recombinantly expressed HIF-2α PAS-B domain; details: HIF-2α PAS-B vs HIF-1α PAS-B
T3 construct: HIF-2α PAS-B (240-350); His tag; made in house; host or cells: E. coli BL21(DE3)-Rosetta, pET28a
T3 sequence (Q99814 240-350): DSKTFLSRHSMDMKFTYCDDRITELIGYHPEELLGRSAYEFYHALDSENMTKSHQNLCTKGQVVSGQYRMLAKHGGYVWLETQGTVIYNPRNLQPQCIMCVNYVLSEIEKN
Method: The three lead peptides were next chemically synthesised, using Fmoc-solid phase peptide synthesis methodology, followed by in-solution cyclisation under high dilution conditions.
as §1, with “use. […]” for “use.”

solubility (qualitative) = assay type: physicochemical

T1 sequence (Q16665 whole entry): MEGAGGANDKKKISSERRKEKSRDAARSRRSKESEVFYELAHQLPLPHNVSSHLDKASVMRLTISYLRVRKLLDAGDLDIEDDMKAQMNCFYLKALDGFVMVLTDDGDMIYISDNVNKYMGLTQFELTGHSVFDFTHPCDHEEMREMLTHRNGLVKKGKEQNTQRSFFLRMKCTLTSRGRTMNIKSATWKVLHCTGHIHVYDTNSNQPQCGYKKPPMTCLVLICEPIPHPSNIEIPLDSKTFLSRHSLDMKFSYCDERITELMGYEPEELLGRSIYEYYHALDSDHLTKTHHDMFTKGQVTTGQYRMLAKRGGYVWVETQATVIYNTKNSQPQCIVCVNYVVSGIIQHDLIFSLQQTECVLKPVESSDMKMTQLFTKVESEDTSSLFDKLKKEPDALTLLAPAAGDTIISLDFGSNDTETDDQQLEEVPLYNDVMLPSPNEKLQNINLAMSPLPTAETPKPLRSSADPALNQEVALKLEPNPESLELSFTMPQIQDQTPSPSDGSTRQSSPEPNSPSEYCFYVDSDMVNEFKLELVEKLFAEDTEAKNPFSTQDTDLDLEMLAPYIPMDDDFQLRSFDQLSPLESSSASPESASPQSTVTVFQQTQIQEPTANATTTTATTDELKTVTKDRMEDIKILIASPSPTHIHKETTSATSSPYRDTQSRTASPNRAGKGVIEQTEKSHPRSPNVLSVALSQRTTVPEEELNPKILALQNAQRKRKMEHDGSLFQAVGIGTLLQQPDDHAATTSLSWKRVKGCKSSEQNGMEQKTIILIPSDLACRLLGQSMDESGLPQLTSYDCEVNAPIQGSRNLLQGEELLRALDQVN

## CC[C@H](C)[C@@H]1NC(=O)[C@H](CC(C)C)NC(=O)[C@H](CCCNC(=N)N)NC(=O)[C@H](CS)NC(=O)[C@H](Cc2ccc(I)cc2)NC(=O)[C@H]([C@@H](C)CC)NC1=O [Cyclic peptide #18, cyclo-cys agr leuileile (4-I)phe] (cyclo(CRLII[Phe(4-I)]))
HIF-1a
  Stabilisation of HIF-1a by CETSA: Stabilisation
[1]
  IC50: ~35 µM
cells
  toxicity to cells in cell-viability assay: not toxic
HIF-1α PAS-B (238-349)
  improvement in affinity relative to the parent compound: 4.5 fold
HIF-2α PAS-B (240-350)
  loss in Kd compared to the 1α isoform: 2.2 fold
Solubility (qualitative)
  water solubility compared with the 4-benzyl compound: better water solubility
